Source: patent publication US20220323626A1, “Compositions, Kits, Methods and Uses for Preventing Microbial Growth” (Collidion, Inc., priority 2019, published 2022)

System: Staphylococcus aureus (ATCC 29213)
Experiment: Microbiostatic assay: antimicrobial effectiveness test according to USP-51, viable colony counts over 28 days
Assay type: cell-based
Settings: inferred from the initial assays (7-log reduction at 0.5 ppm and above)
Procedure: To prepare stock cultures of pathogenic bacteria, 10 mL nutrient broth was inoculated using a stock culture of Staphylococcus aureus (ATCC 29213) and incubated on an orbital shaker for 24±2 hours at approximately 150 rpm at 36±1° C. This culture was used to inoculate Tryptic Soy Agar (TSA) plates. Each plate was inoculated with the culture. Each plate was incubated for up to 48 hours at 30° C. to 35° C. Following incubation, suspensions were prepared by adding growth from TSA plates into a tube containing sterile water. Each tube was then vortexed and an aliquot was serially diluted and plated onto TSA plate for further numeration. The final numeration count uses aliquot volume, count obtained on TSA plate and the total original volume of culture. […]
Each composition was tested over a seven log dilution series of pathogen bacteria assays by preparing samples containing 200 μL of a pathogenic bacteria suspension, 20 μL of an organic load, and 20,000 μL of a composition disclosed herein. […] The presence of viable bacteria was then measured by counting the number of colonies observed on the agar medium for each assay sample. Log reduction is determined by taking the log10 of the number calculated by taking the number of viable pathogenic bacteria colonies present in the assay sample without serum divided by the number of viable pathogenic bacteria colonies present in the assay sample with serum. […]

## hypochlorous acid
  minimum microbiocidal concentration of hypochlorous acid or free available chlorine in the disclosed compositions: approximately 0.5 ppm
